Like-named read-outs stand apart in the source and are kept apart here.
What was measured:
MAO-A = target: T1, MAO-A (Homo sapiens, UniProt P21397); experiment: Receptor/kinase panel: MAO-A; type: biochemical; settings: off-target DAT/MAO-A at 10 μM vs on-target potency
T1 sequence (P21397 1-527): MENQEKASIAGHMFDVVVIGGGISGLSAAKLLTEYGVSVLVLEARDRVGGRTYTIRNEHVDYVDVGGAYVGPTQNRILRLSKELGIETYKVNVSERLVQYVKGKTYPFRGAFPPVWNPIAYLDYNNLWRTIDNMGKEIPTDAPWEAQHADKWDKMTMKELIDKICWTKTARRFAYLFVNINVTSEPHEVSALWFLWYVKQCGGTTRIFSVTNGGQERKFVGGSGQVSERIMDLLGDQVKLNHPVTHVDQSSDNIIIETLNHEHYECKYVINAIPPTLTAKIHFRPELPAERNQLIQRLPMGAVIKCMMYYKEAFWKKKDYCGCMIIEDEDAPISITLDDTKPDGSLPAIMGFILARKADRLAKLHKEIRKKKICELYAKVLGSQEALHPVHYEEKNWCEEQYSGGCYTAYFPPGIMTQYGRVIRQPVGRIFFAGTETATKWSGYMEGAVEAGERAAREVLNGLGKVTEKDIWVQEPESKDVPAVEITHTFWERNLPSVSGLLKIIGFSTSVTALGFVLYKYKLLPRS

[1] = Mouse PK, plasma and brain levels after single IV dose; type: in vivo; settings: single 10 mg/kg IV
[2] = Stability in mouse liver microsomes; type: in vitro ADME
[3] = Stability in human liver microsomes; type: in vitro ADME
[4] = Parallel artificial membrane permeability assay (PAMPA); type: in vitro ADME
P-gp = P-gp (Homo sapiens, UniProt P08183); experiment: P-gp study, bidirectional permeability in NIH MDR1 cells; type: in vitro ADME
Chain of P-gp (P08183 whole entry): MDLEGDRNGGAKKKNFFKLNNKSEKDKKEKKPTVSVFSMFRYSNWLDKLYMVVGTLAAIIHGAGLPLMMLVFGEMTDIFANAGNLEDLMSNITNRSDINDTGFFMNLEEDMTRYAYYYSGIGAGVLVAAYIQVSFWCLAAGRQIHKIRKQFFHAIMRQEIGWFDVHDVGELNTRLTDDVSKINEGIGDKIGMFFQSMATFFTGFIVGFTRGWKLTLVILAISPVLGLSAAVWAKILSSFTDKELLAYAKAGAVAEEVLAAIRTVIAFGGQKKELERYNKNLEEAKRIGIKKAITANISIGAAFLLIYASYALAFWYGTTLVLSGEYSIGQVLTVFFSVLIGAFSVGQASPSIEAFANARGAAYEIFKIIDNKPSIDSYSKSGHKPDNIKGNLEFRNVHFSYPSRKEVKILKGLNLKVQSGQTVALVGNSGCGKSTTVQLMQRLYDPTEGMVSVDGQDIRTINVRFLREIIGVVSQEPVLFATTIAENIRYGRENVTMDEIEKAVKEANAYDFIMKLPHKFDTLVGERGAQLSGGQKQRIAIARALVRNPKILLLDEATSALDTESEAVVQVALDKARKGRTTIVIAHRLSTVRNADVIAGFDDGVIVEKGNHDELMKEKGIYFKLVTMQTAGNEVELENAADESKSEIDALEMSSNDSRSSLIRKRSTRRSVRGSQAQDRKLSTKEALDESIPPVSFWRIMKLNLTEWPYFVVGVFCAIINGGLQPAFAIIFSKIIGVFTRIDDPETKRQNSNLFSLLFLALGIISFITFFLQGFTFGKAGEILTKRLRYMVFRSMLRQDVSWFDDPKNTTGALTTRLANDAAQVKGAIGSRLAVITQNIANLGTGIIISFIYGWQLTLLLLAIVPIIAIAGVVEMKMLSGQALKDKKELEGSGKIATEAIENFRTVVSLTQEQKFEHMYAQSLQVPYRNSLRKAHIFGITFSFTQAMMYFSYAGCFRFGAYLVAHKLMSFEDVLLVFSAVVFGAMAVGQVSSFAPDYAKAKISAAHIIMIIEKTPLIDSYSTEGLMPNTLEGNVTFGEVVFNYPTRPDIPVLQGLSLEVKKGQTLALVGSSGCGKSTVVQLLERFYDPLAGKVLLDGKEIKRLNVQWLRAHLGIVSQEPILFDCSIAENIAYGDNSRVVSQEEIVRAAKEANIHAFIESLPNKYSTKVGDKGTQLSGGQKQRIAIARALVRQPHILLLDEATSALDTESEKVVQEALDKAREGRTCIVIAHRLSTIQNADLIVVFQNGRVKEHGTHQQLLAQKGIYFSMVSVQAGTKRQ

[5] = GF120918 −, read-out: Mean Recovery % A to B

O=C(CCCCCc1ccccc1)N[C@H]1CC[C@H](O)CC1 [Compound 15B, N-(trans-4-Hydroxycyclohexyl)-6-phenylhexanamide]
safety window compared to on-target efficacy (MAO-A): 1,000 fold
Vdss (volume of distribution at steady state) [1]: 0.35 L/kg
time therapeutic brain levels (>30 ng/g) were maintained [1]: more than 2 hours

O=C(CCCCOc1ccccc1)N[C@H]1CC[C@H](O)CC1 [Compound 21]
t1/2 MLM [2]: >2.42 h
t1/2 HLM [3]: >2.42 h

O=C(CCCOCc1ccccc1)N[C@H]1CC[C@H](O)CC1 [Compound 22]
t1/2 MLM [2]: >2.42 h
t1/2 HLM [3]: >2.42 h

O=C(CCOCCc1ccccc1)N[C@H]1CC[C@H](O)CC1 [Compound 23]
t1/2 MLM [2]: >2.42 h
t1/2 HLM [3]: >2.42 h

O=C(COCCCc1ccccc1)N[C@H]1CC[C@H](O)CC1 [Compound 24]
t1/2 MLM [2]: >2.42 h
t1/2 HLM [3]: >2.42 h

O=C(N[C@H]1CC[C@H](O)CC1)OCCCCc1ccccc1 [Compound 25]
t1/2 MLM [2]: 0.815 h
t1/2 HLM [3]: 2.188 h
PAMPA compared to parent trans-N-(4-hydroxycyclohexyl)-6-phenylhexanamide [4]: 10 fold

C[C@H]1O[C@@H](O[C@H]2[C@@H](O)C[C@H](O[C@H]3[C@@H](O)C[C@H](O[C@H]4CC[C@@]5(C)[C@H](CC[C@@H]6[C@@H]5C[C@@H](O)[C@]5(C)[C@@H](C7=CC(=O)OC7)CC[C@]65O)C4)O[C@@H]3C)O[C@@H]2C)C[C@H](O)[C@@H]1O [Digoxin]
recovery (P-gp; [5]): 98.9%
recovery (P-gp; GF120918 −, read-out: Mean Recovery % B to A): 103%
Papp B→A (P-gp; MDCK-MDR1, with GF120918 (concentration not stated), GF120918 +): 2.05 ×10⁻⁶ cm/s
Papp B→A (P-gp; MDCK-MDR1, GF120918 −): 13.4 ×10⁻⁶ cm/s
recovery (P-gp; with GF120918 (concentration not stated), GF120918 +, read-out: Mean Recovery % B to A): 99.3%

COCCc1ccc(OCC(O)CNC(C)C)cc1 (centres unmarked) [Metoprolol]
recovery (P-gp; [5]): 105%
Papp A→B (P-gp; MDCK-MDR1, GF120918 −): 21.2 ×10⁻⁶ cm/s

CC(C)(C)NCC(O)COc1cccc2c1CC(O)C(O)C2 (centres unmarked) [Nadolol]
recovery (P-gp; [5]): 97.9%
Papp A→B (P-gp; MDCK-MDR1, GF120918 −): 0.26 ×10⁻⁶ cm/s

Source: patent US11083699B2, “Trans-4-hydroxycyclohexyl phenyl amide mitofusin activators and methods of use thereof” (MITOCHONDRIA EMOTION, INC., priority 2019, dated 2021)
